Results on 24 substances are retold here after patent US20230144436A1, “MUSCLE TARGETING COMPLEXES AND USES THEREOF FOR TREATING MYOTONIC DYSTROPHY” (Dyne Therapeutics, Inc., priority 2020, published 2023).

This data set has as its system DMPK. As to the kind of experiment: DMPK knockdown by transfected antisense oligonucleotides in DM1 C15 myotubes at 0.5 nM and 50 nM. The format is cell-based. To be noted: 72 hours; for Normalized DMPK Remaining: relative to vehicle control = 1.00. The method, then:
Two hundred and thirty-six oligonucleotides for targeting DMPK were generated using in silico analysis. Each individual oligonucleotide was evaluated for their ability to target DMPK in cellulo at two doses—0.5 nM (low dose) and 50 nM (high dose).
Briefly, DM1 C15 immortalized myoblasts were cultured in T-75 flasks until near confluency (˜80% confluent). Myoblasts were then disrupted with trypsin and seeded into 96-well microplates at a density of 50,000 cells/well. Cells were allowed to recover overnight before the growth media was washed out and replaced with a no-serum media to induce differentiation into myotubes. Differentiation proceeded for seven days prior to treatment with DMPK-targeting oligonucleotides.
On day seven following induction of differentiation, DM1 C15 myotubes were transfected with an individual oligonucleotide using 0.3 μL of Lipofectamine MessengerMax per well. All oligonucleotides were tested at both 0.5 nM and 50 nM final concentrations in biological triplicates. After treatment with oligonucleotides, cells were incubated for 72 hours prior to being harvested for total RNA. cDNA was synthesized from the total RNA extracts and qPCR was performed to determine expression levels of DMPK in technical quadruplicate. All qPCR data were analyzed using a traditional […] method and were normalized to a plate-based negative control that comprised cells treated with vehicle control (0.3 μL/well Lipofectamine MessengerMax without any oligonucleotide). Results from these experiments are shown in Table 10. ‘Normalized DMPK Remaining’ for each antisense oligonucleotide in Table 10 refers to the expression level of DMPK in cell treated with said antisense oligonucleotide relative to the negative control that comprised cells treated with vehicle control (wherein the expression level of the negative control has been normalized to equal 1.00)

Setting [1] is: 0.5 nM oligonucleotide, qPCR, relative to vehicle control.
[2] abbreviates: 50 nM oligonucleotide, qPCR, relative to vehicle control.

Turning to “369 (CAUGACAAUCUCCGCCAGGU; chemistry not given here) [compound 369]”, the “Percent DMPK Reduction” value is on record as 29.45% under setting [1] and 70.52% under setting [2]. Moreover, the “Normalized DMPK Remaining” value reads like this: (0.5 nM oligonucleotide, qPCR) 0.71; (50 nM oligonucleotide, qPCR) 0.29.
With “328 (CUUGCCAUAGGUCUCCGCCG; chemistry not given here) [compound 328]”, the “Percent DMPK Reduction” value reads like this: under setting [1], 27.04%; under setting [2], 71.05%. The “Normalized DMPK Remaining” value came to 0.73 (0.5 nM oligonucleotide, qPCR) and 0.29 (50 nM oligonucleotide, qPCR).
On the same counts, the results for “267 (CUUGUUCAUGAUCUUCAUGG; chemistry not given here) [compound 267]” are 16.06%, 49.47%, 0.84 and 0.51.
Consider “455 (UCCAGUUCCAUGGGUGUGGG; chemistry not given here) [compound 455]”, for which the “Percent DMPK Reduction” value was found to be 15.66% (0.5 nM oligonucleotide) and 78.48% (50 nM oligonucleotide). Further, the “Normalized DMPK Remaining” value is, setting by setting: (0.5 nM oligonucleotide) 0.84; (50 nM oligonucleotide) 0.22.
Taken in the same sequence, the figures for “438 (UCUAGGGUUCAGGGAGCGCG; chemistry not given here) [compound 438]” were 21.81%, 83.22%, 0.78 and 0.17.
Take “252 (UCUCGGCCGGAAUCCGCUCC; chemistry not given here) [compound 252]”: the “Percent DMPK Reduction” value was determined as 27.88% under setting [1] and 67.46% under setting [2]. The “Normalized DMPK Remaining” value by setting is: (0.5 nM oligonucleotide, qPCR) 0.72; (50 nM oligonucleotide, qPCR) 0.33.
As for “462 (UCUGCCUCGCGUAGUGACU; chemistry not given here) [compound 462]”, where the note is “0.5 nM oligonucleotide”, the “Percent DMPK Reduction” value is listed as 3.53% and the “Normalized DMPK Remaining” value stood at 0.96. Under “50 nM oligonucleotide”, the “Percent DMPK Reduction” value was 86.86% and the “Normalized DMPK Remaining” value is recorded as 0.13.
On the same counts, the results for “469 (CAGGGAAAGCGCCUCCGAUA; chemistry not given here) [compound 469]” are 11.10%, 0.89, 91.59% and 0.08.
On the same counts, the results for “378 (GGAUGUUGUCGGGUUUGAUG; chemistry not given here) [compound 378]” are 4.26%, 0.96, 40.81% and 0.59.
Taken in the same sequence, the figures for “388 (UGGAACACGGACGGCCCGGC; chemistry not given here) [compound 388]” were -1.90%, 1.02, 60.96% and 0.39.
For “292 (GCCUCUGCCUCGCGUAGUUG; chemistry not given here) [compound 292]”, the “Percent DMPK Reduction” value reads like this: under setting [1], 35.38%; under setting [2], 81.18%. Further, the “Normalized DMPK Remaining” value was found to be 0.65 (0.5 nM oligonucleotide, qPCR) and 0.19 (50 nM oligonucleotide, qPCR).
On the same counts, the results for “321 (GCUCCCUCUGCCUGCAGCAA; chemistry not given here) [compound 321]” are 26.41%, 70.15%, 0.74 and 0.30.
As for “318 (AGGAGCAGGGAAAGCGCCUC; chemistry not given here) [compound 318]”, the “Percent DMPK Reduction” value is given as 33.24% under setting [1] and 62.37% under setting [2]. For the same substance, the “Normalized DMPK Remaining” value (0.5 nM oligonucleotide, qPCR) was determined as 0.67 and the “Normalized DMPK Remaining” value (50 nM oligonucleotide, qPCR) was 0.38.
Turning to “439 (CACCAACACGUCCCUCUCCU; chemistry not given here) [compound 439]”, under “0.5 nM oligonucleotide”, the “Percent DMPK Reduction” value amounted to 37.51% and the “Normalized DMPK Remaining” value is on record as 0.62. Under “50 nM oligonucleotide”, the “Percent DMPK Reduction” value was found to be 81.57% and the “Normalized DMPK Remaining” value stood at 0.18.
On the same counts, the results for “408 (UCGGGUUUGAUGUCCCUGUG; chemistry not given here) [compound 408]” are 22.49%, 0.78, 57.16% and 0.43.
Taken in the same sequence, the figures for “481 (GGGAAAGCGCCUCCGAUAGG; chemistry not given here) [compound 481]” were 10.02%, 0.90, 76.79% and 0.23.
Taken in the same sequence, the figures for “401 (CUCUGCCGGGUGAGCACCUC; chemistry not given here) [compound 401]” were 25.25%, 0.75, 74.36% and 0.26.
With “383 (CGGGCCCGGAUCACAGGACU; chemistry not given here) [compound 383]”, where the note is “0.5 nM oligonucleotide”, the “Percent DMPK Reduction” value is given as 17.45% and the “Normalized DMPK Remaining” value is 0.83. Under “50 nM oligonucleotide”, the “Percent DMPK Reduction” value is reported as 67.11% and the “Normalized DMPK Remaining” value is on record as 0.33.
For “334 (CCAUGACAAUCUCCGCCAGG; chemistry not given here) [compound 334]”, the “Percent DMPK Reduction” value runs as follows: under setting [1], 34.53%; under setting [2], 76.46%. The “Normalized DMPK Remaining” value reads like this: (0.5 nM oligonucleotide, qPCR) 0.65; (50 nM oligonucleotide, qPCR) 0.24.
Consider “417 (CCAGCAGGAUGUUGUCGGGU; chemistry not given here) [compound 417]”, for which, where the note is “0.5 nM oligonucleotide”, the “Percent DMPK Reduction” value is listed as 40.29% and the “Normalized DMPK Remaining” value worked out at 0.60. Further, for the setting “50 nM oligonucleotide”, the “Percent DMPK Reduction” value is given as 89.59% and the “Normalized DMPK Remaining” value is 0.10.
With “359 (UGCACGUGUGGCUCAAGCAG; chemistry not given here) [compound 359]”, the “Percent DMPK Reduction” value by setting is: under setting [1], 10.81%; under setting [2], 64.18%. The “Normalized DMPK Remaining” value came to 0.89 (0.5 nM oligonucleotide, qPCR) and 0.36 (50 nM oligonucleotide, qPCR).
Regarding “478 (CCAGCGGCAGAGAGAGGUGC; chemistry not given here) [compound 478]”, the “Percent DMPK Reduction” value (0.5 nM oligonucleotide) is given as 3.23% and the “Percent DMPK Reduction” value (50 nM oligonucleotide) is recorded as 84.55%. In addition, the “Normalized DMPK Remaining” value runs as follows: (0.5 nM oligonucleotide) 0.97; (50 nM oligonucleotide) 0.15.
Take “460 (GGUCCAGCAGGAUGUUGUCG; chemistry not given here) [compound 460]”: where the note is “0.5 nM oligonucleotide”, the “Percent DMPK Reduction” value is given as 31.78% and the “Normalized DMPK Remaining” value was 0.68. Moreover, for the setting “50 nM oligonucleotide”, the “Percent DMPK Reduction” value is 79.93% and the “Normalized DMPK Remaining” value worked out at 0.20.
With “348 (AUGAUCUUCAUGGCAUACAC; chemistry not given here) [compound 348]”, the “Percent DMPK Reduction” value under setting [1] is recorded as 12.76% and the “Percent DMPK Reduction” value under setting [2] worked out at 39.97%. Moreover, the “Normalized DMPK Remaining” value reads like this: (0.5 nM oligonucleotide, qPCR) 0.87; (50 nM oligonucleotide, qPCR) 0.60.
